How the values were obtained:
[1] = biological target: T1, Recombinant full-length human IDO1 (Homo sapiens, UniProt P14902); assay: IDO1 enzymatic assay (NFK quantified by LCMS); type: biochemical; conditions: 2 nM enzyme, 5 μM L-tryptophan, pH6.5, 30 minutes pre-incubation at RT; mean values when measured multiple times; read-out: hIDO activity (IC50 in nM)
T1 construct: Recombinant full-length human IDO1 with a N-terminal hexahistidine tag; hexahistidine (His6) (N); made in house; host or cells: E. coli
T1 sequence (P14902 whole entry): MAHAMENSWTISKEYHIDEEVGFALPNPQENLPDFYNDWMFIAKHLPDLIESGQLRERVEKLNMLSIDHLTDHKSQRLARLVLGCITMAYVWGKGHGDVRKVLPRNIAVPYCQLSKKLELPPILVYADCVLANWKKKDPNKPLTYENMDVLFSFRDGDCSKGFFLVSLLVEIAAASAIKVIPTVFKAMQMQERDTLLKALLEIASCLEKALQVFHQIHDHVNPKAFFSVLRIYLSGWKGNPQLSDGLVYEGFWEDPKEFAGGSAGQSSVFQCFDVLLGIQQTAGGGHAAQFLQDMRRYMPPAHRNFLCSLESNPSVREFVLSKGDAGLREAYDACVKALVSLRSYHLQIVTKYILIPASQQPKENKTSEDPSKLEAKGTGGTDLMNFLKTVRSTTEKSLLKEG
Method in brief: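 IC50 comes from four-parameter logistic fits of duplicate data, with NFK quantified by LCMS and normalized to L-Trp-(indole-d5). Compound (0.5 nM–10 μM) was preincubated 30 min at RT with 2 nM E. coli-expressed IDO1 before a 30 min reaction with 5 μM tryptophan in pH 6.5 buffer containing ascorbate and methylene blue.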

[2] = biological target: T2, Recombinant human TDO comprising amino acids 19-407 (Homo sapiens, UniProt P48775); assay: TDO2 enzymatic assay (NFK quantified by LCMS); type: biochemical; conditions: 15 nM enzyme, 200 μM L-tryptophan, pH7, 30 minutes pre-incubation at RT; mean values when measured multiple times; read-out: hTDO activity (IC50 in nM)
T2 construct: Recombinant human TDO comprising amino acids 19-407 with a N-terminal hexahistidine tag; hexahistidine (His6) (N); made in house; host or cells: E. coli
T2 sequence (P48775 19-406 limits assumed): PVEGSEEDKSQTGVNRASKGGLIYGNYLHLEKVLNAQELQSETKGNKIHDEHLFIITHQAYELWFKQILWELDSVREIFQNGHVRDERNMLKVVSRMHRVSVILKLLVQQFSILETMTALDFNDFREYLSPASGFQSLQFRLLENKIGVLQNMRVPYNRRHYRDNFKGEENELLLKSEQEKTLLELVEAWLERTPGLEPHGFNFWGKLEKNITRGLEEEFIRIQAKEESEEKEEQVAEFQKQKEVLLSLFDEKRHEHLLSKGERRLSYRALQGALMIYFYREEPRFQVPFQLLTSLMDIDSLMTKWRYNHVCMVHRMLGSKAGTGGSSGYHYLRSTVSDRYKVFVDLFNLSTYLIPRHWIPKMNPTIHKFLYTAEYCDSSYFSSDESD
Method in brief: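 NFK formed over 30 min at RT from 200 μM L-tryptophan was measured by LCMS, normalized to d5-tryptophan, after compound (0.5 nM–10 μM, duplicates, 0.6% DMSO) was preincubated 30 min with 15 nM recombinant His-tagged TDO 19-407 in phosphate buffer pH 7. IC50 from four-parameter logistic fit; repeats averaged.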

| IC50 [1] | IC50 [2] | Structure (SMILES) |
| --- | --- | --- |
| 515 nM | > 10200 nM | OC(c1cn(-c2ccccc2)cn1)c1c(C2CC2)sc2cncn12 (racemic) [Example 178, rac-(2-Cyclopropyl-imidazo[5,1-b]thiazol-3-yl)-(1-phenyl-1H-imidazol-4-yl)-methanol] |
| 204 nM | > 10200 nM | OC(c1cn(-c2ccc(OCCN3CCCCC3)cc2)nn1)c1c(C2CC2)sc2cncn12 (racemic) [Example 89, rac-(2-Cyclopropyl-imidazo[5,1-b]thiazol-3-yl)-{1-[4-(2-piperidin-1-yl-ethoxy)-phenyl]-1H-[1,2,3]triazol-4-yl}-methanol] |
| 16.5 nM | > 10200 nM | OCCOCCOc1ccc(-n2cc(C(O)c3c(C4CC4)sc4cncn34)nn2)cc1 (racemic) [Example 138, rac-2-[2-(4-{4-[(2-Cyclopropyl-imidazo[5,1-b]thiazol-3-yl)-hydroxy-methyl]-[1,2,3]triazol-1-yl}-phenoxy)-ethoxy]-ethanol] |
| 28.9 nM | > 10200 nM | COc1ccc(-n2cc(C(O)c3c(C4CC4)sc4cncn34)nn2)c(F)c1Cl (racemic) [Example 292, rac-[1-(3-Chloro-2-fluoro-4-methoxy-phenyl)-1H-[1,2,3]triazol-4-yl]-(2-cyclopropyl-imidazo[5,1-b]thiazol-3-yl)-methanol] |
| 13.9 nM | > 10200 nM | CC(C)(O)CCOc1ccc(-n2cc(C(O)c3c(C(C)(F)F)sc4cncn34)nn2)cc1Cl (racemic) [Example 307, rac-4-[2-Chloro-4-(4-{[2-(1,1-difluoro-ethyl)-imidazo[5,1-b]thiazol-3-yl]-hydroxy-methyl}-[1,2,3]triazol-1-yl)-phenoxy]-2-methyl-butan-2-ol] |
| 5.68 nM | 4190 nM | OC(c1cn(-c2cncc3ccccc23)nn1)c1c(C2CC2)sc2cncn12 (racemic) [Example 26, rac-(2-Cyclopropyl-imidazo[5,1-b]thiazol-3-yl)-(1-isoquinolin-4-yl-1H-[1,2,3]triazol-4-yl)-methanol] |
| 5.44 nM | > 10200 nM | CC(C)(O)COc1ccc(-n2cc([C@H](O)c3c(C4CC4)sc4cncn34)nn2)cc1 [Example 139a, 1-(4-{4-[(R)-(2-Cyclopropyl-imidazo[5,1-b]thiazol-3-yl)-hydroxy-methyl]-[1,2,3]triazol-1-yl}-phenoxy)-2-methyl-propan-2-ol] |
| 23.5 nM | > 10200 nM | Oc1ccc(-n2cc(C(O)c3c(C4CC4)sc4cncn34)nn2)cc1OC(F)(F)F (racemic) [Example 210, rac-4-{4-[(2-Cyclopropyl-imidazo[5,1-b]thiazol-3-yl)-hydroxy-methyl]-[1,2,3]triazol-1-yl}-2-trifluoromethoxy-phenol] |
| 182 nM | > 10200 nM | OC(c1cn(-c2cncnc2)nn1)c1c(C2CC2)sc2cncn12 (racemic) [Example 19, rac-(2-Cyclopropyl-imidazo[5,1-b]thiazol-3-yl)-(1-pyrimidin-5-yl-1H-[1,2,3]triazol-4-yl)-methanol] |
| 37.8 nM | 8320 nM | CCCCNC(=O)Nc1ccc(-n2cc(C(O)c3c(C4CC4)sc4cncn34)nn2)cc1 (racemic) [Example 188, rac-1-Butyl-3-(4-{4-[(2-cyclopropyl-imidazo[5,1-b]thiazol-3-yl)-hydroxy-methyl]-[1,2,3]triazol-1-yl}-phenyl)-urea] |
| 26.9 nM | > 10200 nM | Cc1cc(O)ccc1-n1cc(C(O)c2c(C3CC3)sc3cncn23)nn1 (racemic) [Example 207, rac-4-{4-[(2-Cyclopropyl-imidazo[5,1-b]thiazol-3-yl)-hydroxy-methyl]-[1,2,3]triazol-1-yl}-3-methyl-phenol] |
| 734 nM | > 10200 nM | Cc1sc2cncn2c1C(O)c1cnc(-c2ccccc2)s1 (racemic) [Example 155, rac-(2-Methyl-imidazo[5,1-b]thiazol-3-yl)-(2-phenyl-thiazol-5-yl)-methanol] |
| 32 nM | 7720 nM | CCc1sc2cncn2c1C(O)c1cn(-c2ccc(NC(=O)N3CCOCC3)cc2)nn1 (racemic) [Example 121, rac-Morpholine-4-carboxylic acid (4-{4-[(2-ethyl-imidazo[5,1-b]thiazol-3-yl)-hydroxy-methyl]-[1,2,3]triazol-1-yl}-phenyl)-amide] |
| 4.55 nM | > 10200 nM | O[C@@H](c1cn(-c2ccc(OCC3CCOCC3)cc2)nn1)c1c(C2CC2)sc2cncn12 [Example 87a, (R)-(2-Cyclopropyl-imidazo[5,1-b]thiazol-3-yl)-{1-[4-(tetrahydro-pyran-4-ylmethoxy)-phenyl]-1H-[1,2,3]triazol-4-yl}-methanol] |
| 225 nM | > 10200 nM | CCCC=Cc1sc2cncn2c1C(O)c1cn(-c2ccc(OC)cc2)nn1 (racemic) [Example 271, rac-[1-(4-Methoxy-phenyl)-1H-[1,2,3]triazol-4-yl]-[((E)-2-(pent-1-enyl))-imidazo[5,1-b]thiazol-3-yl]-methanol] |
| 43.6 nM | > 10200 nM | COc1ccc(-n2cc(C(O)c3c(-c4cnn(C)c4)sc4cncn34)nn2)cc1 (racemic) [Example 273, rac-[1-(4-Methoxy-phenyl)-1H-[1,2,3]triazol-4-yl]-[2-(1-methyl-1H-pyrazol-4-yl)-imidazo[5,1-b]thiazol-3-yl]-methanol] |
| 63.6 nM | > 10200 nM | CNS(=O)(=O)c1ccc(-n2cc(C(O)c3c(C4CC4)sc4cncn34)nn2)cc1 (racemic) [Example 226, rac-4-{4-[(2-Cyclopropyl-imidazo[5,1-b]thiazol-3-yl)-hydroxy-methyl]-[1,2,3]triazol-1-yl}-N-methyl-benzenesulfonamide] |
| 205 nM | > 10200 nM | CCOc1ccc(-n2cc(C(O)c3c(C)sc4cncn34)nn2)cn1 (racemic) [Example 55, rac-[1-(6-Ethoxy-pyridin-3-yl)-1H-[1,2,3]triazol-4-yl]-(2-methyl-imidazo[5,1-b]thiazol-3-yl)-methanol] |
| 51.7 nM | > 10200 nM | COc1ccc(-n2cc(C(O)c3c(C)sc4cncn34)nn2)cc1 (racemic) [Example 261, rac-[1-(4-Methoxy-phenyl)-1H-[1,2,3]triazol-4-yl]-(2-methyl-imidazo[5,1-b]thiazol-3-yl)-methanol] |
| 15 nM | 8710 nM | CCc1sc2cncn2c1C(O)c1cn(-c2ccc(C(=O)NC3CC3)cc2)nn1 (racemic) [Example 125, rac-N-Cyclopropyl-4-{4-[(2-ethyl-imidazo[5,1-b]thiazol-3-yl)-hydroxy-methyl]-[1,2,3]triazol-1-yl}-benzamide] |

Reference: US20200405696A1, “INHIBITORS OF INDOLEAMINE 2,3-DIOXYGENASE AND/OR TRYPTOPHAN 2,3-DIOXYGENASE” (IDORSIA PHARMACEUTICALS LTD, priority 2018, published 2020)
